{"source": "patent US11129845B2", "about": "“Compositions and methods for the delivery of nucleic acids” (CASE WESTERN RESERVE UNIVERSITY, priority 2014, dated 2021)", "key": {"[1]": {"system": "HT29-Luc cells", "assay": "MTT cytotoxicity in HT29-Luc cells", "format": "cell-based, human"}, "[2]": {"system": "luciferase reporter", "assay": "Luciferase reporter silencing in HT29-Luc cells", "format": "cell-based, human", "conditions": "for Luciferase expression: 100 nM siRNA", "procedure": "Gene silencing efficiency was investigated in the HT29-Luc cell line by analyzing the expression of a luciferase reporter after anti-Luc siRNA therapy. To perform this study, cancer cells were seeded in 12 well plates at a density of 20,000 cells per well. Transfections were conducted in fresh serum-free media with 100 nM of siRNA when the cells were 25% confluent. The cells continued to grow in normal growth media for an additional 48 and 72 h, at which point they were rinsed twice with PBS and lysed for protein collection. The lysis buffer was a component of a Promega Luciferase Assay kit designed for measuring luciferase expression in the cell lysate. Equally important, the lysis buffer was compatible with the BCA protein assay so that we were able to normalize the luciferase expression in our samples with total protein content. For this silencing study, all synthesized carriers were evaluated at N/P ratios of 8, 10, 12, 14, 16, 18, and 20 to determine the best transfection formulation. Relative luciferase expression was determined for each trial using a SpectraMax luminometer upon the addition of a light-inducing luciferin substrate to the collected protein.\nThe RNAi capabilities of each carrier were investigated by analyzing the silencing of a luciferase (Luc) reporter in HT29 cancer cells after anti-Luc siRNA therapy. To perform this study, we seeded HT29-Luc cells in 12 well plates at a density of 20,000 cells per well. When 25% confluency, the cells were incubated with fresh serum-free transfection media containing nanoparticles at a dose of 100 nM siRNA. After 4 hours, the media was replaced with fresh complete growth media, so that the cells could continue to grow for an additional 48-72 hours, at which point they were lysed for protein collection. The lysis buffer was compatible with the BCA protein assay so that we could normalize luciferase expression in our samples. Negative controls included cells that were treated with 1) particles encapsulating non-specific siRNA, 2) naked anti-Luc siRNA, or 3) plain serum-free media. Luciferase expression was determined using a Spectra Max luminometer upon the addition of a light-inducing substrate to the collected protein. A similar knockdown experiment was also conducted in non-cancerous CHO cells expressing a GFP reporter. Flow cytometry was utilized to assess the silencing efficiency of the ECO and ECL delivery systems in this cell line. Cytotoxicity of the carriers 48 hours post-transfection was also investigated in both cell lines using an MTT colorimetric assay. […] These RNAi silencing levels surpassed those obtained with a Lipofectamine RNAiMax commercial transfection agent."}, "[3]": {"assay": "Agarose gel retardation (siRNA loading)", "format": "physicochemical", "procedure": "The ability of ECO to complex and condense siRNA was assessed by gel electrophoresis. […] The gel was submerged in 0.5×Tris/Borate/EDTA (TBE) buffer and run at 100 V for 25 minutes. Free siRNA was run as the control. SiRNA bands were visualized using an AlphaImager ultraviolet imaging system (Biosciences). […] Following incubation, samples were loaded onto a 1% agarose gel containing ethidium bromide and run in the same manner as described. […] At each intermittent time point, aliquots were taken and stored at −80° C. After the final aliquot was taken at 24 hours, samples were incubated for 30 minutes with heparin at a heparin/siRNA (w/w) ratio of 5 to release the complexed siRNA cargo and each sample was loaded on the 1% agarose gel and run as described above. Free siRNA was also incubated in 50% serum for 0.5, 1, 6, or 24 hours and stored and run on the gel in a similar manner."}, "[4]": {"system": "GFP reporter protein", "assay": "GFP reporter silencing in CHO-GFP cells (flow cytometry)", "format": "cell-based, Chinese hamster", "conditions": "N/P=4, 48 h post-transfection, 100 nM siRNA", "procedure": "The RNAi induced silencing capabilities of each carrier was investigated in both a CHO-GFP non-cancerous cell line and an HT29-Luc (luciferase) human colon cancer cell line. Approximately 50,000 CHO-GFP cells were seeded into 6 well plates. When 25% confluency was achieved, the growth media were replaced with fresh serum free transfection media containing siRNA nanoparticles, at a dose of 100 nM siRNA. Negative controls included cells that were either treated with naked anti-GFP siRNA or with plain serum-free media. N/P ratios of 4, 6, 8, 10, 12, and 14 were tested for each carrier to determine the optimal nanoparticle formulation. […] After 4 h, the media were removed and replaced with fresh complete growth media, and cells were allowed to grow for another 24, 48, or 72 h post-transfection. At each of these time points, the CHO-GFP cells were rinsed twice with PBS, trypsinized, and fixed with 2% paraformaldehyde. […] Cell-Quest software was used to analyze the results and obtain mean fluorescence intensity (MFI) values.\nThe RNAi capabilities of each carrier were investigated by analyzing the silencing of a luciferase (Luc) reporter in HT29 cancer cells after anti-Luc siRNA therapy. […] Luciferase expression was determined using a Spectra Max luminometer upon the addition of a light-inducing substrate to the collected protein. […]"}, "[5]": {"assay": "Nanoparticle diameter and polydispersity by dynamic light scattering (Malvern Zetasizer)", "format": "physicochemical", "conditions": "for Nanoparticle diameter as measured by dynamic light scattering: siRNA-lipid complexes", "procedure": "The cationic lipid carriers are dissolved in ethanol at a stock concentration of 2.5 mM, while all siRNA is reconstituted in nuclease-free water at a 0.25 μg/μL (18.8 μM) concentration. Nanoparticles are formulated by mixing the carriers with siRNA for a period of 30 min in RNase-free phosphate buffer saline (PBS) at pre-specified N/P ratios (N=number of protonable amines in lipid, P=number of phosphate groups in the siRNA). In preparing the lipoplexes, proper dilutions were made such that the volume ratio of ethanol:water was kept constant at 1:20. Minimizing the amount of ethanol is important because it is effective in dissolving lipids, thus inhibiting particle formation. The diameters (as determined by dynamic light scattering) and zeta potentials of all nanoparticles were analyzed using a Malvern Zetasizer instrument at pH=7.4. siRNA encapsulation efficiency was calculated using a RiboGreen fluorescence-based assay from Invitrogen, designed specifically for detection of free RNA at […] wavelengths of 480 and 520 nm, respectively. Nanoparticles were created with all carriers in the library so that final siRNA concentrations were 1.6 μg/mL. A linear standard curve was utilized to calculate the encapsulation efficiencies from signal intensities measured by a SpectraMax microplate reader (Molecular Devices)."}}, "data": [{"smiles": "CCCCCCCC/C=C\\CCCCCCCC(=O)N[C@@H](CS)C(=O)NCCNC(=O)CCN(CCN)CCC(=O)NCCNC(=O)[C@H](CS)NC(=O)CCCCCCC/C=C\\CCCCCCCC", "note": "[ECO, (1-aminoethyl)iminobis[N-(oleicylcysteinyl-1-amino-ethyl)propionamide]]", "values": [{"measurement": "cell viability (MTT)", "setting": "[1]; HT29, N/P=18", "result": "87.3±2.72", "unit": "%"}, {"measurement": "cell viability (MTT)", "setting": "[1]; HT29, N/P=20", "result": "51.5±5.87", "unit": "%"}, {"measurement": "luciferase knockdown (transfection efficiency)", "setting": "[2]; HT29, N/P 18, 72 h post-transfection", "result": "77.5±3.3", "unit": "%"}, {"measurement": "silencing efficiency", "setting": "[2]; HT29-Luc, N/P ratio of 18, over 72 hours", "result": 80, "unit": "%"}, {"measurement": "Luciferase expression", "setting": "[2]; HT29-Luc, N/P=12, 72 h", "result": "33.5±3.82", "unit": "%"}, {"measurement": "Luciferase expression", "setting": "[2]; HT29-Luc, N/P=18 (Lipofectamine per manufacturer), 72 h", "result": "22.7±3.31", "unit": "%"}, {"measurement": "N/P ratio at which complexed siRNA was completely prevented from migrating through the gel", "setting": "[3]", "result": "≥ 14"}, {"measurement": "N/P ratio at which no siRNA signal was observed in the loading well", "setting": "[3]", "result": "≥ 18"}, {"measurement": "relative GFP reporter expression", "setting": "[4]", "result": "61.0±5.05", "unit": "%"}, {"measurement": "Polydispersity of siRNA-lipid complexes", "setting": "[5]; N/P = 2", "result": 0.245}, {"measurement": "Polydispersity of siRNA-lipid complexes", "setting": "[5]; N/P = 5", "result": 0.200}, {"measurement": "Polydispersity of siRNA-lipid complexes", "setting": "[5]; N/P = 8", "result": 0.157}, {"measurement": "Polydispersity of siRNA-lipid complexes", "setting": "[5]; N/P = 10", "result": 0.136}, {"measurement": "Polydispersity of siRNA-lipid complexes", "setting": "[5]; N/P = 15", "result": 0.005}, {"measurement": "Nanoparticle diameter as measured by dynamic light scattering", "setting": "[5]; N/P = 2", "result": "468 ± 43", "unit": "nm"}, {"measurement": "Nanoparticle diameter as measured by dynamic light scattering", "setting": "[5]; N/P = 5", "result": "448 ± 23", "unit": "nm"}, {"measurement": "Nanoparticle diameter as measured by dynamic light scattering", "setting": "[5]; N/P = 8", "result": "59 ± 11", "unit": "nm"}, {"measurement": "Nanoparticle diameter as measured by dynamic light scattering", "setting": "[5]; N/P = 10", "result": "78 ± 12", "unit": "nm"}, {"measurement": "Nanoparticle diameter as measured by dynamic light scattering", "setting": "[5]; N/P = 15", "result": "42 ± 9", "unit": "nm"}]}]}
